Patent publication US7375088B2, “Polyene polyketides, processes for their production and their use as a pharmaceutical” (Thallion Pharmaceuticals Inc., priority 2003, dated 2008)
≈ marks a conversion by molar mass, not a printed value.

Legend:
Candida krusei LSPQ 0309 = test: MIC broth microdilution assay; settings: Pichia kudriavzevii
Procedure: (§1) Test compound preparation: The test article was prepared as 100× stock solutions in DMSO, with concentrations ranging from 3.2 mg/ml to 0.0625 mg/ml (a two-fold dilution series over 10 points). The first dilution (3.2 mg/ml) was prepared by resuspending 0.5 mg of each test article in 156.25 μl of DMSO. The stock is then serially diluted by two-fold increments to obtain the desired concentration range.
(§2) Inoculum preparation: For fungal strains, the inoculum was prepared as follows. From an overnight culture in Yeast Media broth, cell density was adjusted in 0.85% saline to 0.5 McFarland. This procedure yielded a stock suspension of about 5×10^6 cells/ml. Following thorough vortexing, a working suspension was prepared by diluting the stock 1:50 in RPMI 1640, and then further diluting it 1:20 with RPMI 1640 to obtain the 2× test inoculum (about 5×10^3 cells/ml). For filamentous fungi, the inoculum was prepared as follows. […]
(§3) 50 μl of the final cell dilution (yeast, filamentous fungi or bacteria) of each indicator strain was added to each corresponding well of the microplate containing 50 μl of diluted drug or media alone. […] MIC readings were determined at 24 and 48 hrs for the Candida and Aspergillus species, and at 48 and 72 hrs for Cryptococcus neoformans. MIC readout for each indicator was determined as the lowest concentration of test compound resulting in total absence of growth.

[1] = test system: Saccharomyces cerevisiae ATCC 9763; test: MIC broth microdilution assay
Procedure: as §1, §2, §3

Aspergillus flavus = test: Disk diffusion assay (MEC and zone of inhibition); format: cell-based
Aspergillus fumigatus = test: Disk diffusion assay (MEC and zone of inhibition); format: cell-based
[2] = test system: Candida albicans ATCC 10231; test: MIC broth microdilution assay
Procedure: as §1, §2, §3

C. albicans SC5314 = test: Mouse model of disseminated candidiasis (survival); format: in vivo; settings: for Median survival: CD-1 mice infected i.v. with C. albicans SC5314, observed 21 days
Procedure: Compound 2(a) was provided as a dry powder with an estimated purity of 95+%. Fungizone (amphotericin B desoxycholate, to be used as a comparitor), was also provided as a dry powder with an estimated purity of 95+%. The compound 2(a) and Fungizone were stored as dry powders at −80° C. until the day of administration.
Female mice (species Mus musculus, strain CD-1, Charles River) with body weight range of 22-24 g were used in the study. […] All animal experiments were performed at the Ste-Justine Hospital (Montreal, Quebec) according to ethical guidelines of animal experimentation of the ethical committee of the hospital. During the study, dead or apparently sick animals were promptly removed and sick mice were euthanized upon removal from the cage.
The animals were maintained in rooms under controlled conditions of temperature (23±2° C.), humidity (45±5%), photoperiodicity (12 hrs light/12 hrs dark) and air exchange. The animals were housed in polycarbonate cages (4/single cage) equipped to provide food and water. Sterile wood shavings were used for animal bedding and the bedding was replaced every other day. Food (Harlam Tecklab, Canada) and autoclaved tap water was provided ab libitum, the food being placed in the metal lid on top of the cage. Water bottles were equipped with rubber stoppers and sipper tubes and were cleaned, sterilized and replaced once a week.
Six groups of mice (10 mice per group) were infected intravenously with 3×10^6 CFU of C. albicans SC5314 as previously described (see Dubois, N., et al., Microbiology 1998, 144: 2299-2310). Twenty-four hours after infection, each individual group of mice was treated with Compound 2(a) (1 or 3 mg/kg i.p.), Fungizone (0.25, 0.5 or 1 mg/kg i.p.) as comparitor, or sham-treated with sterile water containing 5% dextrose and 3% DMSO. Each animal received 100 μl of test solution.
The treatment regimen was repeated once daily for a total of 4 days. The mice were observed twice daily for signs of morbidity over 21 days. Moribund animals were scored as non-survivors and euthanized by CO2 inhalation. […]

[3] = at the MEC, 24 hours of incubation
[4] = disk diffusion, 24 hours of incubation

## CC(C=CCCC=CC=CC=CC=CC(=O)NC1=C(O)CCC1=O)C(O)C(C)C(O)C=CC=CC=CC=CC=CCC(OC1OC(C)C(O)C(O)C1O)C(C)C(=O)CC(O)CC(O)CC(O)C=CCC(O)CC(O)CC(O)CC(O)C=CCC(O)CC(O)CCCN (stereo not drawn) [Compound 2(a), 56-Amino-15,17,33,35,37,41,43,45,47,51,53-undecahydroxy-14,16,30-trimethyl-31-oxo-29-(3,4,5-trihydroxy-6-methyl-tetrahydro-pyran-2-yloxy)-hexapentaconta-2,4,6,8,12,18,20,22,24,26,38,48-dodecaenoic acid (2-hydroxy-5-oxo-cyclopent-1-enyl)-amide]
Candida krusei LSPQ 0309; LSPQ0309, 24 h
  MIC: 8 mg/L (≈ 6.17 µM)
Candida krusei LSPQ 0309; LSPQ0309, 48 h
  MIC: 8 mg/L (≈ 6.17 µM)
[1]; ATCC9763, 24 h
  MIC: 4 mg/L (≈ 3.08 µM)
[1]; ATCC9763, 48 h
  MIC: 4 mg/L (≈ 3.08 µM)
Aspergillus flavus
  antifungal activity in disk diffusion assay: active
Aspergillus flavus; [3]
  ZOI (zone of inhibition of fungal growth calculated for each MEC): 2.7 mm
Aspergillus flavus; [4]
  MEC (minimum effective concentration): 2.5 µg/mL
Aspergillus fumigatus
  antifungal activity in disk diffusion assay: active
Aspergillus fumigatus; [3]
  ZOI (zone of inhibition of fungal growth calculated for each MEC): 2.7 mm
Aspergillus fumigatus; [4]
  MEC (minimum effective concentration): 2.5 µg/mL
[2]; ATCC10231, 24 h
  MIC: 4 mg/L (≈ 3.08 µM)
[2]; ATCC10231, 48 h
  MIC: 4 mg/L (≈ 3.08 µM)
C. albicans SC5314; 1.0 mg/kg i.p. once daily for 4 days
  Median survival: 8.5 days
C. albicans SC5314; 3.0 mg/kg i.p. once daily for 4 days
  Median survival: 20 days
C. albicans SC5314; versus vehicle (median survival 5 days)
  increase of the median survival time of infected mice: 4 fold
